Here are results for one compound from patent US20250042856A1, “CRYSTALLINE FORM OF (R)-2-(TERT-BUTYLAMINO)-1-(5-FLUOROPYRIDIN-3-YL)-ETHAN-1-OL HEMI-TARTRATE SALT FOR THE TREATMENT OF HYPERGLYCEMIA AND DIABETES 2” (ATROGI AB, priority 2021, published 2025).

This data set is described as follows: TGMS mass loss due to water after exposure to stress conditions. As to conditions: between 6° and 160° C., after 2 days at 40° C. and 75% RH. It counts as physicochemical.

As for `CC(C)(C)NC[C@H](O)c1cncc(F)c1.O=C(O)C(=O)O` [Comparative Salt Example 9], the “mass loss (TGMS)” value was “no significant mass loss”.
